Measurements from patent US8987250B2 (Gilead Sciences, Inc., priority 2012, dated 2015).

System: HIV-IIIb
Test: Test A: Antiviral Assay in MT4 Cells
Assay type: cell-based
Conditions: Human immunodeficiency virus 1, IIIB, MT4, 120 h, Table 2; MT-4 cells infected with HIV-IIIb, 5 days of incubation, CellTiter-Glo; read-out: EC50
Method in brief: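 Read-out: CellTiter-Glo chemiluminescence after 5-day incubation at 37 °C. Compounds tested as 3-fold serial dilutions (10 concentrations, quadruplicate) in RPMI 1640 with 10% FBS, on MT-4 cells pre-infected at 37 °C with HIV-IIIb at 0.004 m.o.i.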

Question: How did the EC50 turn out when `Cc1cc2nc(-c3ccc4scnc4c3)sc2c(-c2ccc(Cl)cc2)c1[C@H](OC(C)(C)C)C(=O)O` [Compound 429] was run?
Answer: 0.043 µM

Question: Which EC50 does the source give for `Cc1cc2nc(-c3ccc4cnn(C)c4c3)sc2c(-c2ccc(Cl)cc2)c1[C@H](OC(C)(C)C)C(=O)O` [Compound 430] here?
Answer: 0.029 µM

Question: With `Cc1cc2nc(N3Cc4cccnc4C3)sc2c(-c2ccc(Cl)cc2)c1[C@H](OC(C)(C)C)C(=O)O` [Compound 431] as the compound, how does the EC50 read?
Answer: 0.018 µM

Question: With `Cc1cc2nc(N3Cc4ccncc4C3)sc2c(-c2ccc(Cl)cc2)c1[C@H](OC(C)(C)C)C(=O)O` [Compound 432] as the compound, how does the EC50 read?
Answer: 0.018 µM

Question: `Cc1cc2nc(N3CCc4cccnc4C3)sc2c(-c2ccc(Cl)cc2)c1[C@H](OC(C)(C)C)C(=O)O` [Compound 433] was tested. Which EC50 did it give?
Answer: 0.038 µM

Question: For `Cc1cc2nc(N3CCc4ccncc4C3)sc2c(-c2ccc(Cl)cc2)c1[C@H](OC(C)(C)C)C(=O)O` [Compound 434], which EC50 is on record?
Answer: 0.042 µM

Question: Which EC50 does the source give for `Cc1cc2nc(N3CCc4cnccc4C3)sc2c(-c2ccc(Cl)cc2)c1[C@H](OC(C)(C)C)C(=O)O` [Compound 435] here?
Answer: 0.039 µM

Question: `Cc1cc2nc(N3Cc4ccccc4C(F)(F)C3)sc2c(-c2ccc(Cl)cc2)c1[C@H](OC(C)(C)C)C(=O)O` [Compound 436] was tested. Which EC50 did it give?
Answer: 0.067 µM

Question: How did the EC50 turn out when `Cc1cc2nc(N3CC[C@@H]4CCCC[C@@H]4C3)sc2c(-c2ccc(Cl)cc2)c1[C@H](OC(C)(C)C)C(=O)O` [Compound 437] was run?
Answer: 0.309 µM

Question: How did the EC50 turn out when `Cc1cc2nc(N3CC[C@H]4CCCC[C@@H]4C3)sc2c(-c2ccc(Cl)cc2)c1[C@H](OC(C)(C)C)C(=O)O` [Compound 438] was run?
Answer: 0.258 µM

Question: For `Cc1cc2nc(N3Cc4ccccc4C3)sc2c(-c2ccc(Cl)cc2)c1[C@H](OC(C)(C)C)C(=O)O` [Compound 439], which EC50 is on record?
Answer: 0.02 µM

Question: `Cc1cc2nc(N3CCc4nn(C)c(C)c4C3)sc2c(-c2ccc(Cl)cc2)c1[C@H](OC(C)(C)C)C(=O)O` [Compound 440] was tested. Which EC50 did it give?
Answer: 0.011 µM

Question: For `Cc1cc2nc(N3CCc4c(c(C)nn4C)C3)sc2c(-c2ccc(Cl)cc2)c1[C@H](OC(C)(C)C)C(=O)O` [Compound 441], which EC50 is on record?
Answer: 0.004 µM

Question: For `Cc1cc2nc(N3CCn4c(C)nnc4C3)sc2c(-c2ccc(Cl)cc2)c1[C@H](OC(C)(C)C)C(=O)O` [Compound 442], which EC50 is on record?
Answer: 1.16 µM

Question: Which EC50 does the source give for `Cc1cc2nc(-c3ccnc(-c4ccc5c(c4)c(C)nn5C)c3)sc2c(-c2ccc(Cl)cc2)c1[C@H](OC(C)(C)C)C(=O)O` [Compound 443] here?
Answer: 0.024 µM

Question: `CNc1nn(C)c2ccc(-c3nc4cc(C)c([C@H](OC(C)(C)C)C(=O)O)c(-c5ccc(Cl)cc5)c4s3)cc12` [Compound 444] was tested. Which EC50 did it give?
Answer: 0.01 µM

Question: Which EC50 does the source give for `CNc1nn(C)c2cc(-c3nc4cc(C)c([C@H](OC(C)(C)C)C(=O)O)c(-c5ccc(Cl)cc5)c4s3)ccc12` [Compound 445] here?
Answer: 0.005 µM

Question: `Cc1cc2nc(-c3ccc4c(c3)OCCO4)sc2c(-c2ccc(Cl)cc2)c1[C@H](OC(C)(C)C)C(=O)O` [Compound 446] was tested. Which EC50 did it give?
Answer: 0.173 µM

Question: With `Cc1cc2nc(-c3ccnc(-n4ccc5ncccc5c4=O)c3)sc2c(-c2ccc(Cl)cc2)c1[C@H](OC(C)(C)C)C(=O)O` [Compound 447] as the compound, how does the EC50 read?
Answer: 0.005 µM

Question: Which EC50 does the source give for `Cc1cc2nc(-c3ccnc(-c4ccc5ccn(C)c(=O)c5c4)c3)sc2c(-c2ccc(Cl)cc2)c1[C@H](OC(C)(C)C)C(=O)O` [Compound 448] here?
Answer: 0.009 µM

Question: How did the EC50 turn out when `Cc1cc2nc(-c3ccnc(-c4ccc5cc[nH]c(=O)c5c4)c3)sc2c(-c2ccc(Cl)cc2)c1[C@H](OC(C)(C)C)C(=O)O` [Compound 449] was run?
Answer: 0.03 µM

Question: With `Cc1cc2nc(-n3ccc4cnccc4c3=O)sc2c(-c2ccc(Cl)cc2)c1[C@H](OC(C)(C)C)C(=O)O` [Compound 450] as the compound, how does the EC50 read?
Answer: 0.025 µM

Question: How did the EC50 turn out when `COc1ccc2ccc(-c3cc(-c4nc5cc(C)c([C@H](OC(C)(C)C)C(=O)O)c(-c6ccc(Cl)cc6)c5s4)ccn3)cc2n1` [Compound 451] was run?
Answer: 0.086 µM

Question: With `Cc1cc2nc(-c3ccnc(-c4ccc5ccc(=O)n(C)c5c4)c3)sc2c(-c2ccc(Cl)cc2)c1[C@H](OC(C)(C)C)C(=O)O` [Compound 452] as the compound, how does the EC50 read?
Answer: 0.016 µM

Question: With `Cc1cc2nc(-c3ccnc(-c4ccc5ccc(=O)[nH]c5c4)c3)sc2c(-c2ccc(Cl)cc2)c1[C@H](OC(C)(C)C)C(=O)O` [Compound 453] as the compound, how does the EC50 read?
Answer: 0.036 µM

Question: For `Cc1cc2nc(-c3ccnc(-c4cnc5c(c4)n(C)c(=O)n5C)c3)sc2c(-c2ccc(Cl)cc2)c1[C@H](OC(C)(C)C)C(=O)O` [Compound 454], which EC50 is on record?
Answer: 0.018 µM

Question: For `Cc1cc2nc(-c3ccc4c(c3)c(=O)n(C)n4C)sc2c(-c2ccc(Cl)cc2)c1[C@H](OC(C)(C)C)C(=O)O` [Compound 455], which EC50 is on record?
Answer: 0.017 µM

Question: How did the EC50 turn out when `Cc1cc2nc(-c3ccnc(N4CC5CCCCN5C4=O)c3)sc2c(-c2ccc(Cl)cc2)c1[C@H](OC(C)(C)C)C(=O)O` (stereo partly shown) [Compound 456] was run?
Answer: 0.02 µM

Question: With `COc1ccc2cc(-c3cc(-c4nc5cc(C)c([C@H](OC(C)(C)C)C(=O)O)c(-c6ccc(Cl)cc6)c5s4)ccn3)ccc2n1` [Compound 457] as the compound, how does the EC50 read?
Answer: 0.096 µM

Question: `Cc1cc2nc(-c3ccnc(-n4ccc5ccncc5c4=O)c3)sc2c(-c2ccc(Cl)cc2)c1[C@H](OC(C)(C)C)C(=O)O` [Compound 458] was tested. Which EC50 did it give?
Answer: 0.005 µM

Question: Which EC50 does the source give for `Cc1cc2nc(-c3ccnc(-c4ccc5[nH]c(=O)ccc5c4)c3)sc2c(-c2ccc(Cl)cc2)c1[C@H](OC(C)(C)C)C(=O)O` [Compound 459] here?
Answer: 0.028 µM

Question: How did the EC50 turn out when `Cc1cc2nc(-c3ccnc(-n4ccn5cccc5c4=O)c3)sc2c(-c2ccc(Cl)cc2)c1[C@H](OC(C)(C)C)C(=O)O` [Compound 460] was run?
Answer: 0.031 µM

Question: For `Cc1cc2nc(-c3ccnc(-c4ccc5c(c4)c(=O)n(C)n5C)c3)sc2c(-c2ccc(Cl)cc2)c1[C@H](OC(C)(C)C)C(=O)O` [Compound 461], which EC50 is on record?
Answer: 0.014 µM

Question: Which EC50 does the source give for `Cc1cc2nc(-c3ccnc(-n4ccc5ccccc5c4=O)c3)sc2c(-c2ccc(Cl)cc2)c1[C@H](OC(C)(C)C)C(=O)O` [Compound 462] here?
Answer: 0.042 µM

Question: For `Cc1cc2nc(-c3ccnc(-c4ccc5c(c4)[nH]c(=O)n5C)c3)sc2c(-c2ccc(Cl)cc2)c1[C@H](OC(C)(C)C)C(=O)O` [Compound 463], which EC50 is on record?
Answer: 0.052 µM

Question: Which EC50 does the source give for `CCC(CC)N1CCN(c2nccc(-c3nc4cc(C)c([C@H](OC(C)(C)C)C(=O)O)c(-c5ccc(Cl)cc5)c4s3)n2)CC1` [Compound 464, (S)-2-tert-butoxy-2-(7-(4-chlorophenyl)-5-methyl-2-(2-(4-(pentan-3-yl)piperazin-1-yl)pyrimidin-4-yl)benzo[d]thiazol-6-yl)acetic acid] here?
Answer: 0.012 µM

Question: How did the EC50 turn out when `Cc1cc2nc(-c3ccnc(N4CCN(C(C)(C)C)CC4)n3)sc2c(-c2ccc(Cl)cc2)c1[C@H](OC(C)(C)C)C(=O)O` [Compound 465, (S)-2-tert-butoxy-2-(2-(2-(4-tert-butylpiperazin-1-yl)pyrimidin-4-yl)-7-(4-chlorophenyl)-5-methylbenzo[d]thiazol-6-yl)acetic acid] was run?
Answer: 0.002 µM

Question: How did the EC50 turn out when `Cc1cc2nc(-c3ccnc(N4CCN(C(C)C)C[C@H]4C)n3)sc2c(-c2ccc(Cl)cc2)c1[C@H](OC(C)(C)C)C(=O)O` [Compound 466, (S)-2-tert-butoxy-2-(7-(4-chlorophenyl)-2-(2-((R)-4-isopropyl-2-methylpiperazin-1-yl)pyrimidin-4-yl)-5-methylbenzo[d]thiazol-6-yl)acetic acid] was run?
Answer: 0.005 µM

Question: For `Cc1cc2nc(-c3ccnc(N4CCN(C)[C@@H](C)C4)n3)sc2c(-c2ccc(Cl)cc2)c1[C@H](OC(C)(C)C)C(=O)O` [Compound 468, (S)-2-tert-butoxy-2-(7-(4-chlorophenyl)-2-(2-((S)-3,4-dimethylpiperazin-1-yl)pyrimidin-4-yl)-5-methylbenzo[d]thiazol-6-yl)acetic acid], which EC50 is on record?
Answer: 0.008 µM

Question: `Cc1cc2nc(-c3ccnc(N4CCN(C)[C@H](C)C4)n3)sc2c(-c2ccc(Cl)cc2)c1[C@H](OC(C)(C)C)C(=O)O` [Compound 469, (S)-2-tert-butoxy-2-(7-(4-chlorophenyl)-2-(2-((R)-3,4-dimethylpiperazin-1-yl)pyrimidin-4-yl)-5-methylbenzo[d]thiazol-6-yl)acetic acid] was tested. Which EC50 did it give?
Answer: 0.008 µM

Question: `Cc1cc2nc(-c3ccnc(N4CCN(C(C)C)[C@@H](C)C4)n3)sc2c(-c2ccc(Cl)cc2)c1[C@H](OC(C)(C)C)C(=O)O` [Compound 470, (S)-2-tert-butoxy-2-(7-(4-chlorophenyl)-2-(2-((S)-4-isopropyl-3-methylpiperazin-1-yl)pyrimidin-4-yl)-5-methylbenzo[d]thiazol-6-yl)acetic acid] was tested. Which EC50 did it give?
Answer: 0.003 µM

Question: With `Cc1cc2nc(-c3ccnc(N4CCN(C(C)C)[C@H](C)C4)n3)sc2c(-c2ccc(Cl)cc2)c1[C@H](OC(C)(C)C)C(=O)O` [Compound 471, (S)-2-tert-butoxy-2-(7-(4-chlorophenyl)-2-(2-((R)-4-isopropyl-3-methylpiperazin-1-yl)pyrimidin-4-yl)-5-methylbenzo[d]thiazol-6-yl)acetic acid] as the compound, how does the EC50 read?
Answer: 0.003 µM

Question: How did the EC50 turn out when `Cc1cc2nc(-c3ccnc(N4CCN(C(=O)N(C)C)CC4)n3)sc2c(-c2ccc(Cl)cc2)c1[C@H](OC(C)(C)C)C(=O)O` [Compound 472, (S)-2-tert-butoxy-2-(7-(4-chlorophenyl)-2-(2-(4-(dimethylcarbamoyl)piperazin-1-yl)pyrimidin-4-yl)-5-methylbenzo[d]thiazol-6-yl)acetic acid] was run?
Answer: 0.004 µM

Question: Which EC50 does the source give for `CCN1CCN(c2nccc(-c3nc4cc(C)c([C@H](OC(C)(C)C)C(=O)O)c(-c5ccc(Cl)cc5)c4s3)n2)CC1=O` [Compound 473, (S)-2-tert-butoxy-2-(7-(4-chlorophenyl)-2-(2-(4-ethyl-3-oxopiperazin-1-yl)pyrimidin-4-yl)-5-methylbenzo[d]thiazol-6-yl)acetic acid] here?
Answer: 0.008 µM

Question: How did the EC50 turn out when `Cc1cc2nc(-c3ccnc(N4CCN(C(C)C(F)(F)F)CC4)n3)sc2c(-c2ccc(Cl)cc2)c1[C@H](OC(C)(C)C)C(=O)O` (stereo partly drawn) [Compound 474, (2S)-2-tert-butoxy-2-(7-(4-chlorophenyl)-5-methyl-2-(2-(4-((2R/2S)-1,1,1-trifluoropropan-2-yl)piperazin-1-yl)pyrimidin-4-yl)benzo[d]thiazol-6-yl)acetic acid] was run?
Answer: 0.04 µM

Question: With `CCN1CCN(c2nccc(-c3nc4cc(C)c([C@H](OC(C)(C)C)C(=O)O)c(-c5ccc(Cl)cc5)c4s3)n2)CC1` [Compound 475, (S)-2-tert-butoxy-2-(7-(4-chlorophenyl)-2-(2-(4-ethylpiperazin-1-yl)pyrimidin-4-yl)-5-methylbenzo[d]thiazol-6-yl)acetic acid] as the compound, how does the EC50 read?
Answer: 0.006 µM
